In general, IC50 refers to the concentration that inhibits the measured activity by half.

From patent publication US20240116985A1, “STAPLED PEPTIDES AND METHODS THEREOF” (priority 2020, published 2024) come the findings set out here.

In test [1] the target is T1, full-length beta-Catenin (Uniprot ID P35222) (Homo sapiens, UniProt P35222).
T1 construct: 10 nM full-length beta-Catenin (Uniprot ID P35222)
T1 sequence (P35222 1-781): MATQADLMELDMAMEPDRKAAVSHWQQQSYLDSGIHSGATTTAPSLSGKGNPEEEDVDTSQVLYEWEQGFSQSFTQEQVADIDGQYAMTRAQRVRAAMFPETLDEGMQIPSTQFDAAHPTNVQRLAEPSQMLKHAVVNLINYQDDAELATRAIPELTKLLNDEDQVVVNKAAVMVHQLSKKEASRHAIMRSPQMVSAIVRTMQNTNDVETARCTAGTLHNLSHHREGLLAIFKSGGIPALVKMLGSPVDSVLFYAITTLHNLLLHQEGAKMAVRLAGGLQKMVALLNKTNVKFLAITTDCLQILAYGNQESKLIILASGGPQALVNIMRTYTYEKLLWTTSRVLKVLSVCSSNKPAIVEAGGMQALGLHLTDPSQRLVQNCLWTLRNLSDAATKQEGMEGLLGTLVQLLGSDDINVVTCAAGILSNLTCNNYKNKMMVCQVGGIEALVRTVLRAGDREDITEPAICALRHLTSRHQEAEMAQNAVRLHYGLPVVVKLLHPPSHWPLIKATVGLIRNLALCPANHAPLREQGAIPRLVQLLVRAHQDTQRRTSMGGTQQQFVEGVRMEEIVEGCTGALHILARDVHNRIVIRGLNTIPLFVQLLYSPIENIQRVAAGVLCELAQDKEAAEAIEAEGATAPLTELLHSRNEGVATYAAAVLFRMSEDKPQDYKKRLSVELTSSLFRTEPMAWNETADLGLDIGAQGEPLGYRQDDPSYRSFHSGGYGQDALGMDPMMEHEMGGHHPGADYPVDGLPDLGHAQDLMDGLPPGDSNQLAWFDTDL
In words: Fluorescence polarization IC50 (beta-catenin / 5FAM-TCF4 10-53 competition). It is filed as binding. The note with it: fluorescence polarization; read-out: beta-Catenin FP IC50. For orientation: Fluorescence polarisation rises when a labelled molecule tumbles more slowly, as on binding a larger partner.

Test [2] concerns the target T2, beta-catenin/TCF4 engagement (Homo sapiens, UniProt P35222).
T2 construct: expressed in transfected cells; host or cells: HEK293
T2 sequence (P35222 1-781): T1 sequence (P35222 1-781)
In words: Nano-BRET target engagement assay (B-cat-Halo & TCF4-Luc in HEK293 cells). It is filed as cell-based. Particulars: read-out: NanoBRET Abs IC50.

On to `CC(=O)N1CCC[C@]12CC=CCCCC1(CCCC=CCCCOC(=O)N3CC[C@@](C(=O)N[C@@H](Cc4ccccc4Cl)C(=O)N[C@@H](Cc4csc5ccccc45)C(=O)N[C@@H](CC(N)=O)C(N)=O)(C3)NC(=O)[C@H](C)NC(=O)[C@H](Cc3ccccc3)NC(=O)[C@H](C)NC(=O)[C@H](C)NC(=O)[C@H](Cc3cccc(C(=O)O)c3)NC(=O)[C@H](CC(=O)O)NC1=O)NC(=O)[C@H](CC(C)(C)C)NC(=O)[C@H](CC(=O)O)NC2=O` (stereo partly drawn) [I-2036, Ac-PL3-Asp-Npg-B5-Asp-3COOHF-Ala-Ala-Phe-Ala-PyrS2-2C1F-BztA-Asn-NH2], for which the IC50 in test [1] came to 19 nM; in test [2], 12900 nM.

As to `CC(=O)N1CCC[C@]12CC=CCCCC1(CCCC=CCCCOC(=O)N3CC[C@@](C(=O)N[C@@H](Cc4ccccc4Cl)C(=O)N[C@@H](Cc4csc5ccccc45)C(=O)N[C@@H](CC(N)=O)C(N)=O)(C3)NC(=O)[C@H](Cc3ccccc3)NC(=O)[C@H](Cc3ccccc3)NC(=O)[C@H](C)NC(=O)[C@H](C)NC(=O)[C@H](Cc3cccc(C(=O)O)c3)NC(=O)[C@H](CC(=O)O)NC1=O)NC(=O)[C@H](CC(C)(C)C)NC(=O)[C@H](CC(=O)O)NC2=O` (stereo partly drawn) [I-2037, Ac-PL3-Asp-Npg-B5-Asp-3COOHF-Ala-Ala-Phe-Phe-PyrS2-2C1F-BztA-Asn-NH2], the half-inhibitory concentration (IC50) in test [1] was 17 nM; in test [2], 5000 nM.

As for `CC(=O)N1CCC[C@]12CC=CCCCC1(CCCC=CCCCOC(=O)N3CC[C@@](C(=O)N[C@@H](Cc4ccccc4Cl)C(=O)N[C@@H](Cc4csc5ccccc45)C(=O)N[C@@H](CC(N)=O)C(N)=O)(C3)NC(=O)[C@H](CO)NC(=O)[C@H](Cc3ccccc3)NC(=O)[C@H](C)NC(=O)[C@H](C)NC(=O)[C@H](Cc3cccc(C(=O)O)c3)NC(=O)[C@H](CC(=O)O)NC1=O)NC(=O)[C@H](CC(C)(C)C)NC(=O)[C@H](CC(=O)O)NC2=O` (stereo partly drawn) [I-2038, Ac-PL3-Asp-Npg-B5-Asp-3COOHF-Ala-Ala-Phe-Ser-PyrS2-2C1F-BztA-Asn-NH2], the 50% inhibitory concentration (IC50) in test [1] was determined as 11 nM; in test [2] it was 11800 nM.

Consider `CC(=O)N1CCC[C@]12CC=CCCCC1(CCCC=CCCCOC(=O)N3CC[C@@](C(=O)N[C@@H](Cc4ccccc4Cl)C(=O)N[C@@H](Cc4csc5ccccc45)C(=O)N[C@@H](CC(N)=O)C(N)=O)(C3)NC(=O)[C@H](CO)NC(=O)[C@H](Cc3ccccc3)NC(=O)[C@H](C)NC(=O)[C@H](C)NC(=O)[C@H](Cc3cccc(C(=O)O)c3)NC(=O)[C@H](CC(=O)O)NC1=O)NC(=O)[C@H](CC(C)(C)C)NC(=O)[C@H](CC(=O)O)NC2=O` (stereo partly drawn) [I-2039, Ac-PL3-Asp-Npg-B5-Asp-3COOHF-Ala-Ala-Phe-Ser-PyrS2-2C1F-BztA-Asn-NH2], for which the half-inhibitory concentration (IC50) in test [1] turned out to be 9 nM; in test [2], 10500 nM.

As to `CC(=O)N1CCC[C@]12CC=CCCCC1(CCCC=CCCCOC(=O)N3CC[C@@](C(=O)N[C@@H](Cc4ccsc4)C(=O)N[C@@H](Cc4csc5ccccc45)C(=O)N[C@@H](CC(N)=O)C(N)=O)(C3)NC(=O)[C@H](C)NC(=O)[C@H](Cc3ccccc3)NC(=O)[C@H](C)NC(=O)[C@H](C)NC(=O)[C@H](Cc3cccc(C(=O)O)c3)NC(=O)[C@H](CC(=O)O)NC1=O)NC(=O)[C@H](CC(C)(C)C)NC(=O)[C@H](CC(=O)O)NC2=O` (stereo partly drawn) [I-2042, Ac-PL3-Asp-Npg-B5-Asp-3COOHF-Ala-Ala-Phe-Ala-PyrS2-3Thi-BztA-Asn-NH2], the values for the IC50 in test [1] and in test [2] were 9 nM and 10000 nM, respectively.

Turning to `CC(=O)N1CCC[C@]12CC=CCCCC1(CCCC=CCCCOC(=O)N3CC[C@@](C(=O)N[C@@H](Cc4ccsc4)C(=O)N[C@@H](Cc4csc5ccccc45)C(=O)N[C@@H](CC(N)=O)C(N)=O)(C3)NC(=O)[C@H](CO)NC(=O)[C@H](Cc3ccccc3)NC(=O)[C@H](C)NC(=O)[C@H](C)NC(=O)[C@H](Cc3cccc(C(=O)O)c3)NC(=O)[C@H](CC(=O)O)NC1=O)NC(=O)[C@H](CC(C)(C)C)NC(=O)[C@H](CC(=O)O)NC2=O` (stereo partly drawn) [I-2045, Ac-PL3-Asp-Npg-B5-Asp-3COOHF-Ala-Ala-Phe-Ser-PyrS2-3Thi-BztA-Asn-NH2], the IC50 in test [1] was 5 nM; in test [2], 13500 nM.

As for `CC(=O)N1CCC[C@]12CC=CCCCC1(CCCC=CCCCOC(=O)N3CC[C@@](C(=O)N[C@@H](Cc4ccsc4)C(=O)N[C@@H](Cc4csc5ccccc45)C(=O)N[C@@H](CC(N)=O)C(=O)N[C@@H](C)C(=O)N[C@@H](C)C(=O)N[C@@H](C)C(N)=O)(C3)NC(=O)[C@H](CC(C)C)NC(=O)[C@H](Cc3ccccc3)NC(=O)[C@H](C)NC(=O)[C@H](C)NC(=O)[C@H](Cc3cccc(C(=O)O)c3)NC(=O)[C@H](CC(=O)O)NC1=O)NC(=O)[C@H](CC(C)(C)C)NC(=O)[C@H](CC(=O)O)NC2=O` (stereo partly drawn) [I-2046, Ac-PL3-Asp-Npg-B5-Asp-3COOHF-Ala-Ala-Phe-Leu-PyrS2-3Thi-BztA-Asn-Ala-Ala-Ala-NH2], the 50% inhibitory concentration (IC50) in test [1] was 12 nM; in test [2] it was 2900 nM.

In the case of `CC(=O)N1CCC[C@]12CC=CCCCC1(CCCC=CCCCOC(=O)N3CC[C@@](C(=O)N[C@@H](Cc4ccsc4)C(=O)N[C@@H](Cc4csc5ccccc45)C(=O)N[C@@H](C)C(N)=O)(C3)NC(=O)[C@H](CC(C)C)NC(=O)[C@H](Cc3ccccc3)NC(=O)[C@H](C)NC(=O)[C@H](CC(N)=O)NC(=O)[C@H](Cc3cccc(C(=O)O)c3)NC(=O)[C@H](CC(=O)O)NC1=O)NC(=O)[C@H](CC(C)(C)C)NC(=O)[C@H](CC(=O)O)NC2=O` (stereo partly drawn) [I-2049, Ac-PL3-Asp-Npg-B5-Asp-3COOHF-Asn-Ala-Phe-Leu-PyrS2-3Thi-BztA-Ala-NH2], the IC50 came out at 5 nM in test [1] and 4500 nM in test [2].

On to `CC(=O)N1CCC[C@]12CC=CCCCC1(CCCC=CCCCOC(=O)N3CC[C@@](C(=O)N[C@@H](Cc4ccsc4)C(=O)N[C@@H](Cc4csc5ccccc45)C(=O)N[C@@H](C)C(N)=O)(C3)NC(=O)[C@H](CC(C)C)NC(=O)[C@H](Cc3ccccc3)NC(=O)[C@H](C)NC(=O)[C@H](CO)NC(=O)[C@H](Cc3cccc(C(=O)O)c3)NC(=O)[C@H](CC(=O)O)NC1=O)NC(=O)[C@H](CC(C)(C)C)NC(=O)[C@H](CC(=O)O)NC2=O` (stereo partly drawn) [I-2050, Ac-PL3-Asp-Npg-B5-Asp-3COOHF-Ser-Ala-Phe-Leu-PyrS2-3Thi-BztA-Ala-NH2], for which the values for the 50% inhibitory concentration (IC50) in test [1] and in test [2] were 9 nM and 4900 nM, respectively.

As to `CC(=O)N1CCC[C@]12CC=CCCCC1(CCCC=CCCCOC(=O)N3CC[C@@](C(=O)N[C@@H](Cc4ccsc4)C(=O)N[C@@H](Cc4csc5ccccc45)C(=O)N[C@@H](C)C(N)=O)(C3)NC(=O)[C@H](CC(C)C)NC(=O)[C@H](Cc3ccccc3)NC(=O)[C@H](C)NC(=O)[C@H]([C@@H](C)O)NC(=O)[C@H](Cc3cccc(C(=O)O)c3)NC(=O)[C@H](CC(=O)O)NC1=O)NC(=O)[C@H](CC(C)(C)C)NC(=O)[C@H](CC(=O)O)NC2=O` (stereo partly drawn) [I-2051, Ac-PL3-Asp-Npg-B5-Asp-3COOHF-Thr-Ala-Phe-Leu-PyrS2-3Thi-BztA-Ala-NH2], the half-maximal inhibitory concentration (IC50) was found to be 16 nM in test [1] and 8300 nM in test [2].

Consider `CC(=O)N1CCC[C@]12CC=CCCCC1(CCCC=CCCCOC(=O)N3CC[C@@](C(=O)N[C@@H](Cc4ccsc4)C(=O)N[C@@H](Cc4csc5ccccc45)C(=O)N[C@@H](C)C(N)=O)(C3)NC(=O)[C@H](Cc3ccccc3)NC(=O)[C@H](Cc3ccccc3)NC(=O)[C@H](C)NC(=O)[C@H](CCC(N)=O)NC(=O)[C@H](Cc3cccc(C(=O)O)c3)NC(=O)[C@H](CC(=O)O)NC1=O)NC(=O)[C@H](CC(C)(C)C)NC(=O)[C@H](CC(=O)O)NC2=O` (stereo partly drawn) [I-2052, Ac-PL3-Asp-Npg-B5-Asp-3COOHF-Gln-Ala-Phe-Phe-PyrS2-3Thi-BztA-Ala-NH2], for which the figures for the IC50 in test [1] and in test [2] were 12 nM and 6000 nM, respectively.

`CC(=O)N1CCC[C@]12CC=CCCCC1(CCCC=CCCCOC(=O)N3CC[C@@](C(=O)N[C@@H](Cc4ccsc4)C(=O)N[C@@H](Cc4csc5ccccc45)C(=O)N[C@@H](C)C(N)=O)(C3)NC(=O)[C@H](C)NC(=O)[C@H](Cc3ccccc3)NC(=O)[C@H](C)NC(=O)[C@H](CCC(N)=O)NC(=O)[C@H](Cc3cccc(C(=O)O)c3)NC(=O)[C@H](CC(=O)O)NC1=O)NC(=O)[C@H](CC(C)(C)C)NC(=O)[C@H](CC(=O)O)NC2=O` (stereo partly drawn) [I-2053, Ac-PL3-Asp-Npg-B5-Asp-3COOHF-Gln-Ala-Phe-Ala-PyrS2-3Thi-BztA-Ala-NH2]: the IC50 in test [1] was found to be 11 nM; in test [2] it was 5000 nM.

For the molecule `CC(=O)N1CCC[C@]12CC=CCCCC1(CCCC=CCCCOC(=O)N3CC[C@@](C(=O)N[C@@H](Cc4ccsc4)C(=O)N[C@@H](Cc4csc5ccccc45)C(=O)N[C@H](C(N)=O)C(C)C)(C3)NC(=O)[C@H](CC(C)C)NC(=O)[C@H](Cc3ccccc3)NC(=O)[C@H](C)NC(=O)[C@H](CCC(N)=O)NC(=O)[C@H](Cc3cccc(C(=O)O)c3)NC(=O)[C@H](CC(=O)O)NC1=O)NC(=O)[C@H](CC(C)(C)C)NC(=O)[C@H](CC(=O)O)NC2=O` (stereo partly drawn) [I-2055, Ac-PL3-Asp-Npg-B5-Asp-3COOHF-Gln-Ala-Phe-Leu-PyrS2-3Thi-BztA-Val-NH2], the half-maximal inhibitory concentration (IC50) in test [1] came out at 13 nM; in test [2], 10500 nM.
